Reference: patent US8980917B2, “Methods for treating or preventing brain infections” (The Johns Hopkins University, priority 2008, dated 2015)
“Also recorded” adds a separate entry of the source. Like-named read-outs stand apart in the source and are kept apart here.

Assays:
[1] = system: PKC; assay: Activation of PKC and other signaling molecules in response to microbes in human BMEC; format: cell-based; settings: response to type III GBS and E. coli K1 in human BMEC monolayers
Excerpt: We have previously shown that RhoGTPases and PKC contribute to type III GBS and E. coli K1 invasion of BMEC monolayers (1-3), and our next studies were to examine whether cPLA2α activations are related to RhoGTPases and PKC in type III GBS and E. coli K1 invasion of human BMEC monolayers (e.g., up- and down-stream of each other) by using inhibitors of cPLA2α (AACOCF3), Rho kinase (Y-27632), Rac1 (NSC-23766) and PKC (calphostin C).

[2] = system: human BMEC; assay: Type III GBS binding and invasion assays in human BMEC; format: cell-based; settings: inhibitors of cPLA2α, Rho kinase, Rac1 and PKC
Protocol: GBS. Logarithmic phase cultures of GBS grown in Todd-Hewitt broth at 37° C. were washed and suspended in tissue culture medium. Approximately 5×10^5 CFUs of GBS were added to confluent human BMEC grown in each well of a 24-well plate (Corning Costar, multiplicity of infection of 5 bacteria/cell). The plates were centrifuged at 800×g for 10 min to promote the contact of GBS to the surface of the human BMEC monolayer, and then they were incubated for 2 hr at 37° C. The monolayers were washed three times with PBS and incubated with medium containing gentamicin (100 μg/ml) and penicillin (5 μg/ml) at 37° for 2 hr to kill extracellular bacteria. The monolayers were washed again, lysed, and viable intracellular bacteria were enumerated by culturing onto sheep blood agar plates. The percent invasion was calculated as (the number of intracellular bacteria divided by the number of bacteria inoculated)×100. Each assay was run in triplicate and also repeated at least twice. In one set of experiments the total GBS associated with human BMEC were quantified by the above procedure except that the incubation with gentamicin/penicillin was omitted.
Briefly, human BMEC were pretreated with AACOCF3 for 60 min, and then processed for type III GBS and E. coli K1 binding and invasion assays, as described above.
We next examined the effect of montelukast on type III GBS and E. coli K1 invasion of human BMEC by the methods described earlier. Briefly, human BMEC were treated with monelukast for 60 min and then processed for binding and invasion assays with type III GBS strain K79 and E. coli K1 strain RS 218.

[3] = system: HBMEC; assay: E. coli K1 binding and invasion assays in human BMEC (HBMEC); format: cell-based; settings: for E. coli K1 invasion of human BMEC monolayers: inhibitors of cPLA2α, Rho kinase, Rac1 and PKC; for E. coli K1 invasion of HBMEC: strain RS218, HBMEC pretreated 30 mins, compared to vehicle control (DMSO)
Protocol: E. coli strain RS218 was grown overnight in BHI broth in the presence of streptomycin (50 μg/ml). Bacteria were resuspended in experimental medium [M199-HamF12 (1:1) containing 5% heat-inactivated fetal bovine serum, 2 mM glutamine, and 1 mM pyruvate] and added in a multiplicity of infection (MOI) of 100:1 to HBMEC grown in collagen-coated 24-well plates at 37° C. in 5% CO2 incubator for 90 min for binding assay as described previously (9, 10, 14, 28). HBMEC were washed four times with PBS to remove unbound bacteria, lysed in 0.025% Triton X-100 and plated for determinations of CFUs. The results were calculated as a percent of the initial inoculum and expressed as percent relative binding compared to percent binding of RS218 in the presence of vehicle control (DMSO). Each set was run in triplicates.
The HBMEC invasion assay with gentamicin treatment was performed to determine the number of viable intracellular bacteria recovered from the infected HBMEC, as previously described (9, 10, 14, 28). E. coli K1 strain RS218 was added to HBMEC as described above for binding assay. HBMEC were subsequently washed with RPMI 1640 and incubated with experimental media containing gentamicin (100 μg/ml) for 1 h to kill extracellular bacteria. The cells were washed again with PBS and lysed in 0.025% Triton X-100. The released intracellular bacteria were enumerated by plating on sheep blood agar plates. The results were calculated as a percent of the initial inoculum and expressed as percent relative invasion compared to percent invasion of RS218 in the presence of vehicle control (DMSO). Each set was run in triplicates.
To examine the effects of inhibitors and antagonists on E. coli K1 binding to and invasion of HBMEC, HBMEC were pretreated with inhibitors or antagonists for 30 mins before addition of E. coli, and then processed for binding and invasion assays as described above.
E. coli strain RS218 (O18:K1:H7), a cerebrospinal fluid isolate from a neonate with meningitis, was grown overnight in brain heart infusion (BHI) broth (Difco Laboratories, Detroit, Mich.). Bacteria were resuspended in experimental medium [M199-HamF12 (1:1) containing 5% heat-inactivated fetal bovine serum, 2 mM glutamine, and 1 mM pyruvate] and added in a multiplicity of infection (MOI) of 100:1 to BMECs grown in collagen-coated 24-well plates at 37° C. in 5% CO2 incubator for 90 min for binding assay, as previously described^11. BMECs were washed four times with PBS to remove unbound bacteria, lysed in 0.025% Triton X-100 and plated for determinations of CFUs. The results were calculated as a percent of the initial inoculum and expressed as percent relative binding compared to percent binding of RS218 in the presence of vehicle control (DMSO). Each set was run in triplicates.
The BMEC invasion assay with gentamicin treatment^11 was performed to determine the number of viable intracellular bacteria recovered from the infected BMECs. E. coli K1 strain RS218 was added to BMEC as described above for binding assay. BMECs were subsequently washed with RPMI 1640 and incubated with experimental media containing gentamicin (100 μg/ml) for 1 h to kill extracellular bacteria. The cells were washed again with PBS, lysed in 0.025% Triton X-100, and the released intracellular bacteria were enumerated by plating on sheep blood agar plates. The results were calculated as a percent of the initial inoculum and expressed as percent relative invasion compared to percent invasion of RS218 in the presence of vehicle control (DMSO). Each set was run in triplicates.
E. coli. Human BMEC association and invasion assays were carried out as described previously (15). Briefly, for association assays, confluent human BMEC in 24-well tissue culture plates were incubated with 10^7 CFU of E. coli at a multiplicity of infection of 100 for 90 minutes at 37° C. […]

[4] = system: HBMEC; settings: cited from earlier work; for E. coli invasion of HBMEC: pretreatment with microfilament-disrupting agents, previous experiments; for E. coli invasion of human BMEC: inhibitors of iPLA2 and sPLA2, refs (1-3, 24)
[5] = system: human BMEC; settings: inhibitors of iPLA2 and sPLA2; refs (1-3, 24); cited from earlier work
[6] = system: E. coli K1 strain RS218; assay: Mouse model of experimental hematogenous E. coli meningitis (5-LO-/- and wild-type 129SvEv mice); format: in vivo
Excerpt: Female 5-LO−/− (129-Alox5^tm1Fun/J) and strain-matched (129SvEv) wild-type mice, 9˜12 week old and 18˜26 gm, were used (23). […] Most animals receiving 1×10^7 CFUs, however, died between one and two hour of intravenous inoculation. Based on these observations, we examined and compared E. coli K1 penetration into the brain at one hour following intravenous administration of 1×10^7 CFUs of strain RS218 in 5-LO−/− and wild type mice.
Mice were anesthetized with pentobarbital sodium given subcutaneously at 50 mg/kg and each mouse received 1×10^7 CFU of E. coli RS218 in 100 μl PBS via the tail vein. One hour later, mouse chest was cut open, and blood from right ventricle was collected and plated for bacterial counts (CFUs). The mouse was, then, perfused with a mammalian Ringer's solution by transcardiac perfusion through a 23-gauge needle inserted into the left ventricle of the heart under the perfusion pressure of about 100 mmHg. The perfusate exited through a cut in the right atrium. The composition of the mammalian Ringer solution was: (in mM) 132 NaCl, 4.6 KCl, 2 CaCl2, 1.2 MgSO4, 5.5 glucose, 5.0 NaHCO3, and 20 HEPES and Na-HEPES, containing 10 mg/ml BSA; pH of the Ringer solution was maintained at 7.40-7.45 by adjustment of the ratio of Na-HEPES to HEPES. […] Bacterial penetration into the brain was also expressed as (brain CFUs per gm/blood CFUs per ml)×100. […]

[7] = cited from earlier work

CCN(CC)CCCC(C)Nc1nc(C)cc(Nc2ccc3nc(C)cc(N)c3c2)n1 (stereo not shown) [NSC-23766]
inhibition of other signaling molecules [1]: did not exhibit any inhibition of other signaling molecules
type III GBS invasion of human BMEC monolayers [2]: inhibited type III GBS and E. coli K1 invasion of human BMEC monolayers in a dose-dependent manner
E. coli K1 invasion of human BMEC monolayers [3]: inhibited type III GBS and E. coli K1 invasion of human BMEC monolayers in a dose-dependent manner

C=C1[C@@H](C)[C@H]2[C@H](Cc3ccccc3)NC(=O)[C@]23[C@H](OC(C)=O)/C=C/[C@@](C)(O)C(=O)[C@@H](C)C/C=C/[C@H]3[C@@H]1O [cytochalasin D]
E. coli invasion of HBMEC [4]: inhibited

O=C(O)C1(c2ccc3c(c2)OC[C@H](Cc2ccc(-c4ccccc4)cc2)[C@H]3O)CCCC1 [CP105696]
E. coli K1 invasion of HBMEC [3]: failed to affect E. coli K1 invasion of human BMEC monolayers; also recorded: failed to exhibit any inhibition of E. coli invasion of HBMEC

calphostin C
inhibition of other signaling molecules [1]: did not exhibit any inhibition of other signaling molecules
type III GBS invasion of human BMEC monolayers [2]: inhibited type III GBS and E. coli K1 invasion of human BMEC monolayers in a dose-dependent manner
E. coli K1 invasion of human BMEC monolayers [3]: inhibited type III GBS and E. coli K1 invasion of human BMEC monolayers in a dose-dependent manner

C/C1=C/C(=O)O[C@@H]2C[C@@H](CC[C@H](C)/C=C\C=C\CC1)O[C@@](O)([C@@H]1CSC(=O)N1)C2 [latrunculin A]
E. coli invasion of HBMEC [4]: inhibited

CC(=O)O[C@@H]1C[C@@H]2[C@@]3(C)CCCC(C)(C)[C@@H]3CC[C@@]2(C)[C@@H]2CC=C(C=O)[C@H](C=O)[C@@]12C [12-episcalaradial]
E. coli invasion of human BMEC [4]: did not exhibit any significant inhibition
GBS invasion of human BMEC [5]: did not exhibit any significant inhibition

CN(C)C(=O)CCSC(SCCC(=O)O)c1cccc(/C=C/c2ccc3ccc(Cl)cc3n2)c1 (stereo not shown) [MK571]
E. coli K1 penetration into the brain (brain CFU/gm and percent of brain CFU/blood CFU) ([6]; wild type mice, oral 400 μg/mouse one hour before bacterial injection, one hour after i.v. 1×10^7 CFU): significantly decreased E. coli K1 penetration into the brain in the wild type mice; also recorded: significantly decreased E. coli K1 penetration into the brain of wild type mice
E. coli K1 invasion of HBMEC [3]: inhibited E. coli K1 invasion of human BMEC monolayers in a dose-dependent manner; also recorded: effective in inhibiting E. coli invasion of HBMEC in a dose-dependent manner

C[C@@H](N)[C@H]1CC[C@H](C(=O)Nc2ccncc2)CC1 [Y-27632]
inhibition of other signaling molecules [1]: did not exhibit any inhibition of other signaling molecules
type III GBS invasion of human BMEC monolayers [2]: inhibited type III GBS and E. coli K1 invasion of human BMEC monolayers in a dose-dependent manner
E. coli K1 invasion of human BMEC monolayers [3]: inhibited type III GBS and E. coli K1 invasion of human BMEC monolayers in a dose-dependent manner

O=C(Nc1cccc2c(=O)cc(-c3nnn[nH]3)oc12)c1ccc(OCCCCc2ccccc2)cc1 [pranlukast]
safety and tolerability in clinical trials ([7]; in vivo): safe and well tolerated

COc1cc(C(=O)NS(=O)(=O)c2ccccc2C)ccc1Cc1cn(C)c2ccc(NC(=O)OC3CCCC3)cc12 [zafirlukast]
E. coli K1 invasion of HBMEC [3]: effective in inhibiting E. coli invasion of HBMEC in a dose-dependent manner
safety and tolerability in clinical trials ([7]; developed for asthma): safe and well tolerated

CCCCC/C=C\C\C=C/C=C/C=C/[C@@H](SC[C@H](N)C(=O)NCC(=O)O)[C@@H](O)CCCC(=O)O [LTD4]
E. coli penetration into the brains ([6]; 5-LO-/- mice, one hour after i.v. E. coli K1 strain RS218): rescued the decreased E. coli penetration into the brains

CC(c1cc2ccccc2s1)N(O)C(N)=O (stereo not shown) [zileuton, Zileuton]
E. coli K1 invasion of HBMEC [3]: significantly inhibited E. coli K1 invasion of HBMEC in a dose-dependent manner
safety and tolerability in clinical trials ([7]; developed for asthma): safe and well tolerated

O=C1O/C(=C/Br)CCC1c1cccc2ccccc12 (stereo not shown) [bromoenol lactone]
E. coli invasion of human BMEC [4]: did not exhibit any significant inhibition
GBS invasion of human BMEC [5]: did not exhibit any significant inhibition

CC(C)c1ccc2c(c1)c(SC(C)(C)C)c(CC(C)(C)C(=O)O)n2Cc1ccc(Cl)cc1 [MK886]
E. coli K1 invasion of HBMEC [3]: significantly inhibited E. coli K1 invasion of HBMEC in a dose-dependent manner
